Experiments:
[1] = tested on: human atrial cardiomyocytes from patients with sinus rhythm (SR); experiment: Patch-clamp action potential recordings, atrial cardiomyocytes of sinus rhythm patients; assay type: cell-based
Experimental: (§1) A total of 10 patients with sinus rhythm (SR) (N = 5) or atrial fibrillation (AF) (N = 5) undergoing open heart surgery for coronary artery bypass grafting, heart valve replacement or heart transplantation were included in the study (Table S7). A written informed consent was given by all patients. The study protocol involving human tissue samples was approved by the responsible Ethics Committee of the Medical Faculty of Heidelberg University (Germany; S-017/2013) and was conducted in accordance with the 1964 Declaration of Helsinki.
(§2) The right atrial human tissue samples were transported in chilled Ca^2+-free solution (100 mM NaCl, 10 mM KCl, 1.2 mM KH2PO4, 5 mM MgSO4, 50 mM taurine, 5 mM 3-(N-morpholino)propanesulfonic acid (MOPS), 30 mM 2,3-butanedione monoxime and 20 mM glucose, pH 7.0 with NaOH). After dissection into small chunks, the samples were rinsed for 5 minutes with calcium-free Tyrode's solution, which was oxygenated with 100% O2 at 37 °C. The samples were then digested with collagenase type I (288 U/ml; Worthington) and protease type XXIV (5 mg/ml; Sigma-Aldrich, Steinheim, Germany) for 10 to 15 min, followed by an increase in calcium concentration to 0.2 mM. After an additional 35 min of agitation in protease-free solution, rod-shaped single cardiomyocytes were harvested. The suspension was centrifuged, and the cells were resuspended in storage (“Kraftbrühe”, KB) medium (20 mM KCl, 10 mM KH2PO4, 25 mM glucose, 40 mM D-Mannitol, 70 mM K glutamate, 10 mM β-hydroxybutyrate, 20 mM taurine, 10 mM ethylene glycol tetraacetic acid (EGTA), and 1% albumin) until usage in patch-clamp experiments.
(§3) Patch-clamp glass pipettes were fabricated from borosilicate glass (1B120F-4; World Precision Instruments). After back-filling with patch-clamp internal solution (134 mM K gluconate, 6 mM NaCl, 1.2 mM MgCl2, 1 mM Mg-ATP, 10 mM HEPES, pH 7.2 with KOH), tip resistances ranged from 5 to 10 MΩ. All experiments were carried out at room temperature under constant superfusion with patch-clamp extracellular solution containing 137 mM NaCl, 5.4 mM KCl, 1 mM MgCl2, 2 mM CaCl2, 10 mM HEPES, 10 mM glucose (pH 7.3 with NaOH). AP-recordings were performed in current clamp mode: The holding current was adjusted such that the cell’s resting membrane potential was approximately −70 mV at baseline. APs were induced by short (5 ms) depolarizing current pulses at a rate of 0.5 Hz. Data was not adjusted for potential differences caused by liquid junctions, and no leak subtraction was performed.
(§4) Data acquisition and analysis were performed using the pCLAMP10 software (Axon Instruments) and statistical analysis was done using Prism 8 (GraphPad Software). Data is presented as the mean ± standard error of the mean (SEM). Statistical comparisons were made using Dunnett’s post hoc test. A p value of < 0.05 was considered significant.

[2] = tested on: human atrial cardiomyocytes from patients with AF; experiment: Patch-clamp action potential recordings, atrial cardiomyocytes of atrial fibrillation patients; assay type: cell-based
Experimental: as §1, §2, §3, §4

[3] = SR, 1, 6.25 and 12.5 μM, significant at 12.5 μM (p < 0.05)

SMILES: CCCCN(CCCC)CC(=O)Nc1ccc(OC)cc1OC [Compound 6f, 2-(dibutylamine)-N-(2,4-dimethoxiphenyl)acetamide]
- Resting membrane potential (RMP) ([1]; SR, 6.25 μM): slight increase
- APD50 vs baseline ([1]; SR, 1, 6.25 and 12.5 μM): only minor effects
- APD90 vs baseline ([1]; SR, 1, 6.25 and 12.5 μM): only minor effects
- Action potential amplitude (APA) vs baseline [1, 3]: concentration-dependent decrease
- Maximal upstroke velocity (dV/dtmax) vs baseline [1, 3]: concentration-dependent decrease
- APD50 vs baseline ([2]; AF, 6.25 μM): increase in ADP50 with 6.25 μM 6f was significant
- APD50 vs baseline ([2]; AF, 1, 6.25 and 12.5 μM): concentration-dependent prolongation trend
- APD90 vs baseline ([2]; AF, 1, 6.25 and 12.5 μM): concentration-dependent prolongation trend
- Action potential amplitude (APA) vs baseline ([2]; AF, 1, 6.25 and 12.5 μM): no changes
- Maximal upstroke velocity vs baseline ([2]; AF, 1, 6.25 and 12.5 μM): no changes
- Resting membrane potential (RMP) ([2]; AF, 1, 6.25 and 12.5 μM): significant concentration-dependent shift in the RMP to more negative values

Source: PMC12131194, “Rational design, synthesis, and evaluation of novel polypharmacological compounds targeting NaV1.5, KV1.5, and K2P channels for atrial fibrillation” (The Journal of Biological Chemistry, 2025)
